Assay results reported in US9145408B2 (priority 2008, dated 2015).
Counter-ions that a name gives are not always drawn.

Columns and labels:
[1] = tested on: FCA-induced thermal hyperalgesia; test: FCA model of inflammatory pain, thermal hyperalgesia; type: in vivo; details: rat FCA model
Procedure: (§1) Test Animals: Each experiment used rats weighing between 200-260 g at the start of the experiment. The rats were group-housed and had free access to food and water at all times, except prior to oral administration of a Substituted-Quinoxaline-Type Bridged-Piperidine Compound when food was removed for 16 hours before dosing. A control group acted as a comparison to rats treated with a Substituted-Quinoxaline-Type Bridged-Piperidine Compound. The control group was administered the carrier for the Substituted-Quinoxaline-Type Bridged-Piperidine Compound. The volume of carrier administered to the control group was the same as the volume of carrier and Substituted-Quinoxaline-Type Bridged-Piperidine Compound administered to the test group.
Inflammatory Pain: To assess the actions of a Substituted-Quinoxaline-Type Bridged-Piperidine Compound for the treatment or prevention of inflammatory pain, the Freund's complete adjuvant (“FCA”) model of inflammatory pain was used. […] The left hind paw of each animal was administered a 50 μL intraplantar injection of 50% FCA. 24 hour post injection, the animal was assessed for response to noxious mechanical stimuli by determining the PWT, or to noxious thermal stimuli by determining the PWL, as described below. […] Responses to noxious mechanical stimuli were then determined 1, 3, 5 and 24 hours post administration. Percentage reversal of hyperalgesia for each animal was defined as: […]
Response to Thermal Stimuli as an Assessment of Thermal Hyperalgesia: The plantar test can be used to assess thermal hyperalgesia. For this test, hind paw withdrawal latencies (PWL) to a noxious thermal stimulus were determined using a plantar test apparatus (commercially available from Ugo Basile of Italy) following the technique described by K. Hargreaves et al., “A New and Sensitive Method for Measuring Thermal Nociception in Cutaneous Hyperalgesia,” Pain 32(1):77-88 (1988). The maximum exposure time was set at 32 seconds to avoid tissue damage and any directed paw withdrawal from the heat source was taken as the end point. Three latencies were determined at each time point and averaged. Either only the affected (ipsilateral) paw was tested, or both the ipsilateral and contralateral (non-injured) paw were tested.

[2] = abnormal behavioral side effects (sedation, hyperactivity, hypoactivity); details: in vivo
[3] = tested on: nerve injury-induced mechanical hyperalgesia; test: Seltzer partial sciatic nerve ligation model of neuropathic pain, mechanical hyperalgesia; type: in vivo; details: rat Seltzer model, 3 mg/kg
Procedure: as §1
Partial ligation of the left sciatic nerve was performed under isoflurane/O2 inhalation anesthesia. Following induction of anesthesia, the left thigh of the rat was shaved and the sciatic nerve exposed at high thigh level through a small incision and was carefully cleared of surrounding connective tissues at a site near the trocanther just distal to the point at which the posterior biceps semitendinosus nerve branches off of the common sciatic nerve. A 7-0 silk suture was inserted into the nerve with a ⅜ curved, reversed-cutting mini-needle and tightly ligated so that the dorsal ⅓ to ½ of the nerve thickness was held within the ligature. The wound was closed with a single muscle suture (4-0 nylon (Vicryl)) and vetbond tissue glue. Following surgery, the wound area was dusted with antibiotic powder. Sham-treated rats underwent an identical surgical procedure except that the sciatic nerve was not manipulated. Following surgery, animals were weighed and placed on a warm pad until they recovered from anesthesia. Animals were then returned to their home cages until behavioral testing began. The animals were assessed for response to noxious mechanical stimuli by determining PWT, as described below, prior to surgery (baseline), then immediately prior to and 1, 3, and 5 hours after drug administration for rear paw of the animal. Percentage reversal of neuropathic hyperalgesia was defined as: […]
Response to Mechanical Stimuli as an Assessment of Mechanical Hyperalgesia: The paw pressure assay was used to assess mechanical hyperalgesia. For this assay, hind paw withdrawal thresholds (PWT) to a noxious mechanical stimulus were determined using an analgesymeter (Model 7200, commercially available from Ugo Basile of Italy) as described in C. […] The maximum weight that could be applied to the hind paw was set at 250 g and the end point is taken was complete withdrawal of the paw. PWT was determined once for each rat at each time point and either only the affected (ipsilateral) paw was tested, or both the ipsilateral and contralateral (non-injured) paw were tested.

[4] = biological target: hERG (human ether a-go-go gene) (Homo sapiens (Human), UniProt Q12809); test: cardiovascular side effects: in vitro hERG assay and APD in guinea pig purkinje fibers; type: cell-based; details: in vitro hERG assay; APD in guinea pig purkinje fibers
Procedure: These side effects were determined using known methods: an in vitro hERG (human ether a-go-go gene) assay as disclosed in Z. Zhou et al., “Properties of HERG Channels Stably Expressed in HEK 293 Cells Studied at Physiological Temperature,” Biophysical J. 74:230-241 (1998); and APD (action potential duration) in guinea pig purkinje fibers as disclosed in J. A. Hey, “The Guinea Pig Model for Assessing Cardiotoxic Proclivities of Second Generation Antihistamines,” Arzneimittelforschung 46(8):834-837 (1996).

[5] = 5 mg/kg dose, 3 hours after administration
[6] = 5 mg/kg dose, 5 hours after administration

| SMILES | % reversal of thermal hyperalgesia ([1]; 5 mg/kg dose, 1 hour after administration) [%] | % reversal of thermal hyperalgesia [1, 5] [%] | % reversal of thermal hyperalgesia [1, 6] [%] | abnormal behavioral side effects, such as sedation, hyperactivity and/or hypoactivity [2] | % reversal of thermal hyperalgesia ([1]; 3 mg/kg dose, 1 hour after administration) [%] | % reversal of thermal hyperalgesia ([1]; 3 mg/kg dose, 3 hours after administration) [%] | % reversal of thermal hyperalgesia ([1]; 3 mg/kg dose, 5 hours after administration) [%] | ED50 value for reversal of thermal hyperalgesia ([1]; 1 hour after administration) [mg/kg] | ED50 value for reversal of thermal hyperalgesia ([1]; 3 hours after administration) [mg/kg] | ED50 value for reversal of thermal hyperalgesia ([1]; 5 hours after administration) [mg/kg] | % reversal of mechanical hyperalgesia ([3]; 1 hour after administration) [%] | % reversal of mechanical hyperalgesia ([3]; 3 hours after administration) [%] | % reversal of mechanical hyperalgesia ([3]; 5 hours after administration) [%] | % reversal of mechanical hyperalgesia ([3]; 7 hours after administration) [%] | cardiovascular side effects [4] |
| --- | --- | --- | --- | --- | --- | --- | --- | --- | --- | --- | --- | --- | --- | --- | --- |
| O=C(O)c1nc2ccccc2n([C@H]2C[C@H]3CC[C@@H](C2)N3C2CCCCCCCCCC2)c1=O [Compound 358] | 34 | 46 | 79 | reduced abnormal behavioral side effects |  |  |  |  |  |  |  |  |  |  |  |
| O=C(O)c1nc2ccccc2n([C@H]2C[C@H]3CC[C@@H](C2)N3[C@H]2C[C@@H]3CCC[C@@H](C3)C2)c1=O [Compound 361, 4-((endo)-8-((exo)-bicyclo[3.3.1]nonan-3-yl)-8-azabicyclo[3.2.1]octan-3-yl)-3-oxo-3,4-dihydroquinoxaline-2-carboxylic acid] |  | 90 | 70 | reduced abnormal behavioral side effects |  |  |  |  |  |  |  |  |  |  |  |
| O=C(O)c1nc2ccccc2n([C@H]2C[C@H]3CCC[C@@H](C2)N3C2CC3CCCC(C3)C2)c1=O (stereo partly drawn) [Compound 362, 4-((endo)-9-((exo)-bicyclo[3.3.1]nonan-3-yl)-9-azabicyclo[3.3.1]nonan-3-yl)-3-oxo-3,4-dihydroquinoxaline-2-carboxylic acid] |  |  |  | reduced abnormal behavioral side effects | 86 | 51 | 27 | 0.8 | 1.5 | 3.0 | 60 | 60 | 50 | 40 | reduced cardiovascular side effects |
| C[C@@H]1C[C@@H]2C[C@H](C1)C[C@@H](N1[C@@H]3CCC[C@H]1C[C@@H](n1c(=O)c(C(=O)O)nc4ccccc41)C3)C2 [Compound 405, (exo, endo, endo)-4-(9-(7-methylbicyclo[3.3.1]nonan-3-yl)-9-azabicyclo[3.3.1]nonan-3-yl)-3-oxo-3,4-dihydroquinoxaline-2-carboxylic acid potassium salt] |  |  |  |  |  |  |  |  |  |  | 70 | 70 | 70 |  |  |
